Patent US12528815B2, “5-amino-8-(4-pyridyl)-[1,2,4]triazolo[4,3-c]pyrimidin-3-one compounds for use against cancer” (Nxera Pharma UK Limited, priority 2020, dated 2026)

Key:
[1] = molecular target: T1, human adenosine A1 receptor (Homo sapiens, UniProt P30542); test: Inhibition binding assay, human adenosine A1 receptor membranes, [3H]DPCPX; conditions: 1 nM [3H]DPCPX, 25° C., 1 h; IC50 converted to Ki with Cheng-Prusoff; read-out: A1 pKi (converted)
T1 construct: expressed in transfected cells; host or cells: HEK293 cells infected with BacMam (the same paragraph also labels the preparation CHO-hA1)
T1 sequence (P30542 1-326): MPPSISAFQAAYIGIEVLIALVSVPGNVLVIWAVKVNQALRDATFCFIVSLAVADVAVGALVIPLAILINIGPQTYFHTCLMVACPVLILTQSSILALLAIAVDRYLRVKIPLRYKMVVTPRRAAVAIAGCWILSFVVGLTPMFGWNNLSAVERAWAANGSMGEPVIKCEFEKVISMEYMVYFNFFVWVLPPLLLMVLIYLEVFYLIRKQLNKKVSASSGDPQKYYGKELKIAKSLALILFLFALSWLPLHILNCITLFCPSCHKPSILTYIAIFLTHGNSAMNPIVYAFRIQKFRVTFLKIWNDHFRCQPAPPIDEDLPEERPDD
Summary of the method: (§1)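 Membranes from BacMam-infected HEK293 cells (0.2 μg A2A, 1.4 μg A1) incubated 1 h at 25° C with test compound and 1 nM [3H]ZM241385 (A2A; 50 mM Tris-HCl pH 7.4) or [3H]DPCPX (A1; plus 100 mM NaCl, 10 mM MgCl2). Nonspecific: 1 μM CGS15943 or DPCPX. Filtration, scintillation; IC50 converted to Ki via Cheng-Prusoff.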

[2] = molecular target: T2, human CB-1 cannabinoid receptor (Homo sapiens, UniProt P21554); test: CB1 receptor radioligand binding assay, [3H]CP 55940, transfected CHO cell membranes; conditions: 0.5 nM [3H]CP 55940, CHO membrane homogenates, 120 min at 37° C.
T2 construct: expressed in transfected cells; host or cells: CHO cells
Procedure: Nonspecific binding is determined in the presence of 10 μM WIN 55212-2.
Following incubation, the samples are filtered rapidly under vacuum through glass fiber filters (GF/B, Packard) presoaked with 0.3% PEI and rinsed several times with an ice-cold buffer containing 50 mM Tris-HCl (pH 7.4) and 0.5% BSA using a 96-sample cell harvester (Unifilter, Packard). The filters are dried then counted for radioactivity in a scintillation counter (Topcount, Packard) using a scintillation cocktail (Microscint 0, Packard).
The standard reference compound is CP 55940 which is tested in each experiment at several concentrations to obtain a competition curve from which its IC50 is calculated.

[3] = molecular target: T3, human adenosine A2A receptor (Homo sapiens, UniProt P29274); test: Inhibition binding assay, human adenosine A2A receptor membranes, [3H]ZM241385; conditions: 1 nM [3H]ZM241385, HEK293-hA2A membranes, 25° C., 1 h; IC50 converted to Ki with Cheng-Prusoff; read-out: A2A pKi (converted)
T3 construct: expressed in transfected cells; host or cells: HEK293 cells infected with BacMam
Summary of the method: as §1

human CB1 receptor = molecular target: T4, human CB1 receptor (Homo sapiens, UniProt P21554); test: CB1 receptor antagonism, agonist-induced cAMP modulation (HTRF) in transfected CHO cells; format: cell-based; conditions: read-out: Antag IC50
T4 construct: expressed in transfected cells; host or cells: CHO cells
Procedure: Receptor antagonism: Evaluation of the antagonist activity of compounds at the human CB1 receptor expressed in transfected CHO cells, determined by measuring their effects on agonist-induced cAMP modulation using the HTRF detection method.
Thereafter, the reference agonist CP 55940 and the adenylyl cyclase activator NKH 477 are added at respective final concentrations of 3 nM and 3 μM.
For basal control measurements, CP 55940 is omitted from the wells containing 3 μM AM 281.
Following 20 min incubation at 37° C., the cells are lysed and the fluorescence acceptor (D2-labeled cAMP) and fluorescence donor (anti-cAMP antibody labeled with europium cryptate) are added.
After 60 min at room temperature, the fluorescence transfer is measured at λex=337 nm and λem=620 and 665 nm using a microplate reader (Rubystar, BMG). The cAMP concentration is determined by dividing the signal measured at 665 nm by that measured at 620 nm (ratio).
The standard reference antagonist is AM 281, which is tested in each experiment at several concentrations to generate a concentration-response curve from which its IC50 value is calculated.

T4 sequence (P21554 whole entry): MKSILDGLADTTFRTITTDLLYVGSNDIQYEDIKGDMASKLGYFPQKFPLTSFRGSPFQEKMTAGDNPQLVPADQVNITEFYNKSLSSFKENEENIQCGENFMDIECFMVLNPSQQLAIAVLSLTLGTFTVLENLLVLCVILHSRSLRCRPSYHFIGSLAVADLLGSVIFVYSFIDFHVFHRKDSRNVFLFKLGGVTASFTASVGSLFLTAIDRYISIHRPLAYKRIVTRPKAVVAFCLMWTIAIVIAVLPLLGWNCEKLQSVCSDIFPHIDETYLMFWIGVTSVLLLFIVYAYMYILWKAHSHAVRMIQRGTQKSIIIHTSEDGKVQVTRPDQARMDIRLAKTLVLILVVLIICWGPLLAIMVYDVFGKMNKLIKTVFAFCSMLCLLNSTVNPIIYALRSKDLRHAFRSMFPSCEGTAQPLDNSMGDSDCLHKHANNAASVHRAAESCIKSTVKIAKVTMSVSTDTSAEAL
T2 sequence (P21554 whole entry): as above
T3 sequence (P29274 whole entry): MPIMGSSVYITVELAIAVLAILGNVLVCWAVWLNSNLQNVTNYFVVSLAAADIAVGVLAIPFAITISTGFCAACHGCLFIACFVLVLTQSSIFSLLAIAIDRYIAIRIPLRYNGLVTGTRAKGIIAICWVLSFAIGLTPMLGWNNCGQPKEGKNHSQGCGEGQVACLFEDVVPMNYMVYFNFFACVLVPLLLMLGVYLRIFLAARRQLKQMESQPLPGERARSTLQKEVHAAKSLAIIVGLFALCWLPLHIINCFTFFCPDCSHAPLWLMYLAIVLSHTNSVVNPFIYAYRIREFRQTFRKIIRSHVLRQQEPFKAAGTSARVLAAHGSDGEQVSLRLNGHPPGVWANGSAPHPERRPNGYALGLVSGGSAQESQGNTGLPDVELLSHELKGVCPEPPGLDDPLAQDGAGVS

Row | SMILES | Ki [1] [nM] | Ki [2] [nM] | Ki [3] [nM] | IC50 (human CB1 receptor) [nM]
1 | Cc1cc(-c2c(-c3ccccc3)nc(N)n3c(=O)n(CCOC(F)(F)F)nc23)cc(C)n1 [Example 2-30, 5-amino-8-(2,6-dimethyl-4-pyridyl)-7-phenyl-2-[2-(trifluoromethoxy)ethyl]-[1,2,4]triazolo[4,3-c]pyrimidin-3-one] | 251 | 26500 | 2.51 | 19500
2 | Cc1ccc(Cn2nc3c(-c4cc(C)nc(CO)c4)c(-c4ccccc4)nc(N)n3c2=O)nc1 [Example 1-52, 5-amino-8-[2-(hydroxymethyl)-6-methyl-4-pyridyl]-2-[(5-methyl-2-pyridyl)methyl]-7-phenyl-[1,2,4]triazolo[4,3-c]pyrimidin-3-one] | 501 | 46100 | 0.631 | 39400
3 | COc1ccc(-c2nc(N)n3c(=O)n(CCC(F)(F)F)nc3c2-c2cc(C)nc(C)c2)cc1 [Example 2-35, 5-amino-8-(2,6-dimethyl-4-pyridyl)-7-(4-methoxyphenyl)-2-(3,3,3-trifluoropropyl)-[1,2,4]triazolo[4,3-c]pyrimidin-3-one] | 79.4 | 18800 | 1.26 | 
4 | COc1ncccc1Cn1nc2c(-c3cc(C)nc(CO)c3)c(-c3ccccc3)nc(N)n2c1=O [Example 1-57, 5-amino-8-[2-(hydroxymethyl)-6-methyl-4-pyridyl]-2-[(2-methoxy-3-pyridyl)methyl]-7-phenyl-[1,2,4]triazolo[4,3-c]pyrimidin-3-one] | 126 | 62600 | 0.631 | > 100000
5 | Cc1cc(-c2c(-c3ccccc3)nc(N)n3c(=O)n(CC4CCC(F)(F)C4)nc23)cc(C)n1 (stereo not drawn) [Example 2-26, 5-amino-2-[(3,3-difluorocyclopentyl)methyl]-8-(2,6-dimethyl-4-pyridyl)-7-phenyl-[1,2,4]triazolo[4,3-c]pyrimidin-3-one] | 100 | 3900 | 0.398 | 3500
6 | Cc1cc(-c2c(-c3ccccc3)nc(N)n3c(=O)n(CCc4ccccc4)nc23)cc(C)n1 [Example 1-80, 5-amino-8-(2,6-dimethyl-4-pyridyl)-7-phenyl-2-(2-phenylethyl)-[1,2,4]triazolo[4,3-c]pyrimidin-3-one] | 126 | 10800 | 2 | 10200
7 | COc1cc(-c2c(-c3ccccc3)nc(N)n3c(=O)n(Cc4ccc(F)c(N)n4)nc23)cc(CO)n1 [Example 1-64, 5-amino-2-[(6-amino-5-fluoro-2-pyridyl)methyl]-8-[2-(hydroxymethyl)-6-methoxy-4-pyridyl]-7-phenyl-[1,2,4]triazolo[4,3-c]pyrimidin-3-one] | 158 | 23500 | 0.316 | > 100000
8 | Cc1cc(-c2c(-c3ccccc3)nc(N)n3c(=O)n(CC4CCOCC4)nc23)cc(C)n1 [Example 2-73, 5-amino-8-(2,6-dimethyl-4-pyridyl)-7-phenyl-2-(tetrahydropyran-4-ylmethyl)-[1,2,4]triazolo[4,3-c]pyrimidin-3-one] | 1000 | 52000 | 2 | > 100000
9 | Cc1cc(-c2c(-c3ccccc3)nc(N)n3c(=O)n(Cc4ccc(F)cn4)nc23)cc(C)n1 [Example 1-2, 5-amino-8-(2,6-dimethyl-4-pyridyl)-2-[(5-fluoro-2-pyridyl)methyl]-7-phenyl-[1,2,4]triazolo[4,3-c]pyrimidin-3-one] | 316 | 20100 | 0.794 | > 4900
10 | Cc1cc(-c2c(-c3ccccc3)nc(N)n3c(=O)n(Cc4ccc(F)cn4)nc23)cc(N2CCC2)n1 [Example 1-75, 5-amino-8-[2-(azetidin-1-yl)-6-methyl-4-pyridyl]-2-[(5-fluoro-2-pyridyl)methyl]-7-phenyl-[1,2,4]triazolo[4,3-c]pyrimidin-3-one] | 126 | 39100 | 3.16 | 17900
11 | Cc1cc(-c2c(-c3ccc(F)cc3)nc(N)n3c(=O)n(Cc4cccnn4)nc23)cc(C)n1 [Example 1-41, 5-amino-8-(2,6-dimethyl-4-pyridyl)-7-(4-fluorophenyl)-2-(pyridazin-3-ylmethyl)-[1,2,4]triazolo[4,3-c]pyrimidin-3-one] | 398 | 45600 | 2.51 | 43100
12 | Cc1cc(-c2c(-c3ccccc3)nc(N)n3c(=O)n(Cc4ccc(F)cn4)nc23)cc(CO)n1 [Example 1-44, 5-amino-2-[(5-fluoro-2-pyridyl)methyl]-8-[2-(hydroxymethyl)-6-methyl-4-pyridyl]-7-phenyl-[1,2,4]triazolo[4,3-c]pyrimidin-3-one] | 398 | 40000 | 1.58 | 63300
13 | COc1cc(-c2c(-c3ccccc3)nc(N)n3c(=O)n(CCC(F)(F)F)nc23)cc(CO)n1 [Example 2-46, 5-amino-8-[2-(hydroxymethyl)-6-methoxy-4-pyridyl]-7-phenyl-2-(3,3,3-trifluoropropyl)-[1,2,4]triazolo[4,3-c]pyrimidin-3-one] |  | 61000 | 1 | > 100000
14 | Cc1cc(-c2c(-c3ccccc3)nc(N)n3c(=O)n(CC(C)C)nc23)cc(C)[n+]1[O-] [Example 2-57, 5-amino-8-(2,6-dimethyl-1-oxido-pyridin-1-ium-4-yl)-2-isobutyl-7-phenyl-[1,2,4]triazolo[4,3-c]pyrimidin-3-one] | 251 | 72700 | 10 | > 100000
15 | Cc1cc(-c2c(-c3ccccc3)nc(N)n3c(=O)n(C(C)c4ccc(F)cc4F)nc23)cc(C)n1 (stereo not drawn) [Example 1-11, 5-amino-2-[1-(2,4-difluorophenyl)ethyl]-8-(2,6-dimethyl-4-pyridyl)-7-phenyl-[1,2,4]triazolo[4,3-c]pyrimidin-3-one] | 398 | 2600 | 6.31 | 5000
16 | Nc1nc(Cn2nc3c(-c4cc(Cl)nc(CO)c4)c(-c4ccccc4)nc(N)n3c2=O)ccc1F [Example 1-70, 5-amino-2-[(6-amino-5-fluoro-2-pyridyl)methyl]-8-[2-chloro-6-(hydroxymethyl)-4-pyridyl]-7-phenyl-[1,2,4]triazolo[4,3-c]pyrimidin-3-one] | 50.1 | 61300 | 0.316 | > 100000
17 | Cc1cc(-c2c(-c3ccccc3)nc(N)n3c(=O)n(Cc4ccc(F)cn4)nc23)cc(C)[n+]1[O-] [Example 1-42, 5-amino-8-(2,6-dimethyl-1-oxido-pyridin-1-ium-4-yl)-2-[(5-fluoro-2-pyridyl)methyl]-7-phenyl-[1,2,4]triazolo[4,3-c]pyrimidin-3-one] | 251 | 73400 | 15.8 | > 100000
18 | Cc1cc(-c2c(-c3ccccc3)nc(N)n3c(=O)n(Cc4ccc(F)c(N)n4)nc23)cc(CO)n1 [Example 1-45, 5-amino-2-[(6-amino-5-fluoro-2-pyridyl)methyl]-8-[2-(hydroxymethyl)-6-methyl-4-pyridyl]-7-phenyl-[1,2,4]triazolo[4,3-c]pyrimidin-3-one] | 126 |  | 0.794 | > 100000
19 | Cc1cc(-c2c(-c3ccccc3)nc(N)n3c(=O)n(C[C@H]4CNCCO4)nc23)cc(C)n1 [Example 2-66, (R)-5-amino-8-(2,6-dimethylpyridin-4-yl)-2-(morpholin-2-ylmethyl)-7-phenyl-[1,2,4]triazolo[4,3-c]pyrimidin-3(2H)-one] | 1000 |  | 6.31 | > 100000
